Laboratory results from patent US20110136163A1, “Method of Toxicological Assessment” (priority 2008, published 2011).
“Also recorded” adds a separate entry of the source. *1 amine or outer side, *2 acyl side, *3 side chain or, on linkers, in order; H or OH if unused. Where a SMILES comes first, the peptide text is derived from it. Bridges are numbered along the chain shown (N, C = ends). [ ]: non-standard residue; d: D form. Adda = CO[C@@H](Cc1ccccc1)[C@@H](C)/C=C(C)/C=C/[C@H](N[*:1])[C@H](C)C(=O)[*:2]; dAsp(3S-Me) = C[C@H](C(=O)[*:3])[C@@H](N[*:1])C(=O)[*:2]; d(γGlu) = O=C(O)[C@@H](CCC(=O)[*:2])N[*:1]; NMeDha = C=C(NC)C(=O)O

What was measured:
[1] = test system: isolated rat liver mitochondria; format: biochemical
[2] = test system: Primary rat hepatocytes; format: cell-based
[3] = test system: HepG2 cells; test: O2 consumption toxicity assay in HepG2 cells, with and without transport reagent; format: cell-based
[4] = test system: HepG2 cells; test: Western blot of protein phosphorylation (anti-phospho-serine) in HepG2 cells; format: cell-based
Protocol: FIG. 2. Western blot analysis of HepG2 cells treated with MCLR in the presence of EndoPorter for 24 h, primary antibodies used were anti-phospho-serine. Blot analysis show dependence of protein phosphorylation on MCLR concentration.
A number of other markers of cellular function were also investigated for their alterations in response to MCLR treatment of cells in the presence of transport reagent. […] Metabolic parameters such as intracellular levels of ATP and NAD(P)H were seen unchanged.

[5] = test system: Jurkat cells; test: ATP content in Jurkat cells, with and without transport reagent; format: cell-based
Source text: A number of other transport reagents, toxicants, cell models and parameters of cellular function were examined, using the general assay format described in Example 1.

[6] = test system: cells; format: cell-based
[7] = test system: Jurkat cells; test: O2 consumption toxicity assay in Jurkat cells, with and without transport reagent; format: cell-based

Molecule	Effect on O2 consumption of isolated mitochondria [1]	Concentration at which parameters of cellular function were affected [2]	O2 consumption, observed effect [2]	IC50 ([2]; read-out: O2 consumption, IC50)	Concentration above which significant effects on O2 consumption were seen [3]	Peak of bell-shape dose response of O2 consumption [3]	Protein phosphorylation/dephosphorylation in Western blots [4]	ATP content, observed effect [5]	Intracellular level of ATP [6]	Intracellular level of NAD(P)H [6]	Concentration above which significant effects on O2 consumption were seen [7]	O2 consumption / toxicity, observed effect [7]	O2 consumption, observed effect [7]
C=C1C(=O)N[C@H](C)C(=O)N[C@@H](CC(C)C)C(=O)N[C@@H](C(=O)O)[C@H](C)C(=O)N[C@@H](CCCNC(=N)N)C(=O)N[C@@H](/C=C/C(C)=C/[C@H](C)[C@H](Cc2ccccc2)OC)[C@H](C)C(=O)N[C@@H](C(=O)O)CCC(=O)N1C [MCLR, Microcystin-LR] (R[Adda][d(γGlu)][NMeDha][dA]L[dAsp(3S-Me)]-OH; lactam N-7)	uncoupling effect	≥ 0.5 nM	dose-dependent decreases in oxygen consumption	2.74 nM	above 0.1 nM	around 0.5 nM	altered protein phosphorylation/dephosphorylation	No effect at 10 μM; also recorded: Dose dependent decrease	unchanged	unchanged	above 0.1 nM	strong toxicity; also recorded: respiration decreased	no detectable toxicity; also recorded: No effect at 10 μM
Aflatoxin B1												increased toxicity	
